Results reported in patent publication US20260356824A1, “COMPOUNDS FOR TREATING FIBROTIC DISEASES” (Meta-Immue Inc., priority 2023, published 2026).

Tests used:
hLPAR1 = target: T1, hLPAR1 (Homo sapiens, UniProt Q92633); experiment: Ca2+ Flux Assay (B103 cells stably expressing hLPAR1); assay type: cell-based; settings: LPA-induced calcium release, Fura-2 AM, compound 20 min at RT
T1 construct: expressed in transfected cells
In short: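 Fura-2 AM (5 μM) loaded 40 min at RT in HBSS/20 mM HEPES/probenecid/0.3% fatty-acid-free BSA after 2 h serum starvation. Compounds preincubated 20 min at RT, then LPA […] added. Intracellular calcium mobilization read as fluorescence intensity.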

BSEP = target: T2, BSEP (Homo sapiens, UniProt O95342); experiment: Bile Salt Export Pump (BSEP) Assay, Sf9 insect cell vesicles expressing BSEP; assay type: in vitro ADME; settings: 10 μM test compound, probe substrate 1 μM [3H]-taurocholic acid, 15 min incubation
T2 construct: ATP-dependent uptake of radiolabelled probe substrate
T2 sequence (O95342 whole entry): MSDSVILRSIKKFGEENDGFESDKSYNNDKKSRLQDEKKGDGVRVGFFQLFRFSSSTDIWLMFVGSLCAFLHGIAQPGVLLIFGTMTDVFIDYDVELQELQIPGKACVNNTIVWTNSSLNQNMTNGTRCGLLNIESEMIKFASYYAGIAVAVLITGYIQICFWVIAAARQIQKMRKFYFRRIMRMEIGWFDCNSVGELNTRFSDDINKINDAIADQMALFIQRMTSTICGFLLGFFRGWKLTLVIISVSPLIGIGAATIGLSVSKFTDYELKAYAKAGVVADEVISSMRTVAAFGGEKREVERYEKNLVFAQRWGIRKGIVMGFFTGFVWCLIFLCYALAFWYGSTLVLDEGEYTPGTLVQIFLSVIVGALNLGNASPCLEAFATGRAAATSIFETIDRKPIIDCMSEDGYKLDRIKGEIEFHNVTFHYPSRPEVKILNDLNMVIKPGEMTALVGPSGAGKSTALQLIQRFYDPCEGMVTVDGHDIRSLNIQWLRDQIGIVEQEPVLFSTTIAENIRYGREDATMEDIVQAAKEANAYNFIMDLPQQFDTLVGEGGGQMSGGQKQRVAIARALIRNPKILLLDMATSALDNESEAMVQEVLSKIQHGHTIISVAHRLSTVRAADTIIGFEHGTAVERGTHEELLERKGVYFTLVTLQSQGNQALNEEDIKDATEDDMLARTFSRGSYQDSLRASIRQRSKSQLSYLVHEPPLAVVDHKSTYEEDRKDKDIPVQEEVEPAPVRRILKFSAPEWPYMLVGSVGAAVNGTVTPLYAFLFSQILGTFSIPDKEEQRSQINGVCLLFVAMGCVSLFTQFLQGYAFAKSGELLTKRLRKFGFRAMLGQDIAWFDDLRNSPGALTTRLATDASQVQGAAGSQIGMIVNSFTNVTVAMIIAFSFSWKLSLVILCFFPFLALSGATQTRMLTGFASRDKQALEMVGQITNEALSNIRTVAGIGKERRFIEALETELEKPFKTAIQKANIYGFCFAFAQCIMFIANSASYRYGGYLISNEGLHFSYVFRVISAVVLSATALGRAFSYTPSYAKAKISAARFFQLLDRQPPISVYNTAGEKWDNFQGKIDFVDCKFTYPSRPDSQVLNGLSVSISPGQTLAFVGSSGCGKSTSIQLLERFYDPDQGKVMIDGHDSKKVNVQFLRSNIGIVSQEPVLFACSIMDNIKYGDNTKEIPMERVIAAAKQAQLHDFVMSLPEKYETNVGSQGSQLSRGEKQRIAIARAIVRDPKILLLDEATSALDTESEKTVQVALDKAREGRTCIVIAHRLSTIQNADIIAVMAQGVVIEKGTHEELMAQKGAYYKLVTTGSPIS
Protocol: • 1. A stock solution was prepared with the test article (Sponsor compound) in DMSO. • 2. All final assay solutions of probe substrate, reference inhibitor or test article contain 0.5% (v/v) DMSO (vehicle control). • 3. Test article concentrations in transport study were specified in the Summary Table of Experimental Conditions of this protocol.
• 1. Bovine Serum Albumin (BSA) • 2. Dimethyl sulfoxide (DMSO) • 3. BSEP Assay Uptake Buffer (10 mM HEPES-Tris pH 7.4, 0.1 M KNO3, 12.5 mM Mg(NO3)2, 50 mM sucrose) • 4. BSEP Wash Buffer (10 mM Tris-HCl pH 7.4, 0.1 M KNO3, 50 mM sucrose) • 5. BSEP Blocking Buffer (BSEP Wash Buffer+0.5 mg/mL BSA) • 6. 25 mM Mg-ATP solution • 7. 25 mM AMP solution • 8. Corning Costar 96-well flat-bottom, untreated, white Assay Plate (Corning Cat. No. 3912) • 9. Millipore MultiscreenHTs Filtration Plate, glass fiber FB—1.0/0.65 μm (Cat. No. MSFBN6B10 or glass fiber FC—1.2/0.65 μm (Cat. No. MSFCN6B10) • 10. Millipore MultiscreenHTS Vacuum Manifold (Cat. No. MSVMHTS00) • 11. Probe substrates listed in Table 1 • 12. Reference inhibitors listed in Table 1 • 13. Test articles
• 1. Test system: • a. 96-well flat bottom plate containing a suspension of vesicles and a corresponding 96-well glass fiber filtration plate. • b. Transport experiments were conducted in the Assay Uptake Buffer. • c. Transport experiment was initiated with the addition of Mg-ATP or AMP to appropriate wells. • d. Each condition was run in triplicate wells. • 2. Prepared the 96-well flat-bottom assay plate. • a. Incubated the assay plate with the Blocking Buffer for 60 min at 37 °C with orbital shaking at approximately 90 rpm. (NOTE: This is done to prevent non-specific binding of vesicles to polystyrene assay plate). • b. After 60 min, completely removed the Blocking Buffer from the assay plate. • c. The Assay Uptake Buffer solutions were added to the assay plate wells as follows: • i. For probe substrate transport assays, the Assay Uptake Buffer contained vesicles and the probe substrate at the specified concentration. • ii. For the reference inhibition assay, the Assay Uptake Buffer contained vesicles, the reference inhibitor and the probe substrate at the specified concentration in Table 1. • iii. For the test article assays, Assay Uptake Buffer contained vesicles, the test article and the probe substrate at the specified concentration in Table 1. • 3. Incubate at 37 °C with orbital shaking at approximately 90 rpm for the time period specified in Table 1 of this protocol. • 4. Using the 25 mM Mg-ATP or AMP stocks, Mg-ATP or AMP was added to test wells of flat bottom assay plate to a final concentration of 5 mM. • 5. Incubated at 37 °C with orbital shaking at approximately 90 rpm for the incubation time specified in Table 1 of this protocol. • 6. Prepared the 96-well glass fiber filtration plate: • a. Incubated the filtration plate with the Blocking Buffer for 2 min at room temperature with under no vacuum. • b. Turned on vacuum and allowed Blocking Buffer to filter through plate. • c. With vacuum on, filter plate was washed with ice cold Wash Buffer. • 7. At the end of the specified incubation time indicated in […] of this protocol, vesicle transport was quenched by adding ice cold Wash Buffer to samples in 96-well assay plate. • 8. Mixed assay samples (now diluted in Wash Buffer) with pipette and transfered 175 μL into the 96-well glass fiber filtration plate to separate vesicles from buffer by applying vacuum. • 9. Washed filter plate wells with ice cold Wash Buffer. • 10. Allowed filter plate to dry under vacuum. • 11. Transfered filters to scintillation sample plate and added 700 μL of scintillation fluid to the above samples. • 12. Counted the above samples on a 1450 Microbeta (Perkin-Elmer).
• 1. The amount of substrate was quantified with radiometric detection on a 1450 Microbeta (Perkin-Elmer). • 2. For transport study samples run in triplicate, the mean and standard deviation of the replicates were reported. • 3. […]

[1] = Liver microsomal stability, human; assay type: in vitro ADME; settings: human liver microsomes; 30 min; percent of parent remaining; read-out: Liver Microsomal stability (%), % of remaining after 30 min, Human
A2058 cells = experiment: Chemotaxis Assay (LPA-induced migration of A2058 cells); assay type: cell-based; settings: Homo sapiens, 4 to 8 hours, crystal violet 590 nm
In short: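 A2058 cells, starved 24 hr and treated with test compound or vehicle, were placed on a fibronectin-coated membrane ([…]) above […] in DMEM. After 4–8 h migration, migrated cells were crystal violet stained and read at 590 nm. Values are relative percentage of control.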

[2] = Liver microsomal stability, rat; assay type: in vitro ADME; settings: rat liver microsomes; 30 min; percent of parent remaining; read-out: Liver Microsomal stability (%), % of remaining after 30 min, Rat

T1 sequence (Q92633 whole entry): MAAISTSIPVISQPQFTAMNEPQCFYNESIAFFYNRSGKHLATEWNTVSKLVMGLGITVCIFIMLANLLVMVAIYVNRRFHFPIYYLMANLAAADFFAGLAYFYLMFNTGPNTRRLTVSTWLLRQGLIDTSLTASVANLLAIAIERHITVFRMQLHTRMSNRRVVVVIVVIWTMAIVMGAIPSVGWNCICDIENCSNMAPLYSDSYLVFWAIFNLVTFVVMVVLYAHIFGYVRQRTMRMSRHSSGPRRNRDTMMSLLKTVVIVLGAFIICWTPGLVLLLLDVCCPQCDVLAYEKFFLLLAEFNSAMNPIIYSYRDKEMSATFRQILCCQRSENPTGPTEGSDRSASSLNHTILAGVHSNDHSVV

Row | Structure (SMILES) | IC50 (hLPAR1) | remaining at 0.5 h [1] | IC50 (A2058 cells) | remaining at 0.5 h [2] | inhibition at 0.25 h, 10 µM (BSEP)
1 | Cc1noc(C2CCN(c3ccc(C4(C(=O)NS(=O)(=O)CCCO)CC4)cc3)CC2)c1NC(=O)O[C@H](C)c1ccccc1 [Compound 85] | < 10 nM | > 75% | < 100 nM | 50 to 75% | ≤ 25%
2 | CNS(=O)(=O)NC(=O)C1(c2ccc(N3CCC(c4onc(C)c4NC(=O)O[C@H](C)c4ccccc4)CC3)cc2)CC1 [Compound 86] | < 10 nM | > 75% | 100 to 500 nM | > 75% | 50 to 75%
3 | Cc1noc(C2CCN(c3ccc(C4(C(=O)O)CC4)cc3)CC2)c1NC(=O)O[C@H](C)c1ccccc1 [Compound 87, 1-(4-{4-[3-methyl-4-({[(1R)-1-phenylethoxy]carbonyl}amino)-1,2-oxazol-5-yl]piperidin-1-yl}phenyl)cyclopropane-1-carboxylic acid] | < 10 nM | > 75% | < 100 nM | > 75% | 25 to 50%
4 | Cc1nsc(C2CCN(c3ccc(C4(C(=O)NS(=O)(=O)C(F)(F)F)CC4)cc3)CC2)c1NC(=O)O[C@H](C)c1ccccc1 [Compound 94] | < 10 nM | 50 to 75% | < 100 nM | 50 to 75% | 75 to 100%

Further lines, with some results ahead:

Row | IC50 (hLPAR1) | remaining at 0.5 h [1] | IC50 (A2058 cells) | remaining at 0.5 h [2] | Structure (SMILES) | inhibition at 0.25 h, 10 µM (BSEP)
5 | < 10 nM | > 75% | < 100 nM | > 75% | Cc1noc(C2CCN(c3ccc(C4(C(=O)NS(=O)(=O)CCC(=O)O)CC4)cc3)CC2)c1NC(=O)O[C@H](C)c1ccccc1 [Compound 83] | ≤ 25%
6 | < 10 nM | 50 to 75% | 100 to 500 nM | > 75% | Cc1noc(C2CCN(c3ccc(C4(C(=O)NS(=O)(=O)CCCC(=O)O)CC4)cc3)CC2)c1NC(=O)O[C@H](C)c1ccccc1 [Compound 84] | ≤ 25%
